The text below walks through data of US7034020B2, “Derivatives of butyric acid and uses thereof” (The University of Arkansas for Medical Science, priority 1999, dated 2006).

Assay [1] relates to KLH-specific Th1 cells (clone D3). The experiment in a line: IL-2-induced proliferation of Th1 cells in the presence of butyrate derivatives. It counts as cell-based, C57BL/10 mice. The protocol:
KLH-specific Th1 cells (clone D3) are stimulated with IL-2 (10% Con A CM) in the presence of different concentrations of n-butyrate or butyrate derivatives. In FIG. 2A Th1 cell proliferation is measured after 2 days. In FIG. 2B, the inhibitors are washed out after 24 hours, and the Th1 cells reincubated with fresh IL-2-containing medium. Proliferation of the Th1 cells restimulated with IL-2 in the absence of the inhibitors is measured after an additional 2 days. This experiment was repeated three times, and the proliferation data represents the means of the […] experiments.
The KLH-specific were developed in C57BL/10 mice, and characterized as Th1 clones based on their ability to secrete IL-2, but not IL-4. The Th1 clones were passed every 7–14 days using KLH, irradiated syngeneic spleen cells as antigen-presenting cells (APC), and IL-2-containing Con A CM using a previously described protocol (Gilbert et al., 1990).
To test the ability of the butyrate derivatives to suppress T cell activity […], Th1 cells [(5×10^4 cells/well in 96 well plates (Costar)] are stimulated with 10% IL-2-containing Con A CM in the presence of various concentrations of different butyrate derivatives. In some cultures, Th1 cell proliferation is measured after two days. In other cultures, the Th1 cells are washed after 24 hours, and fresh IL-2-containing medium is added. Proliferation is measured in the washed, IL-2-restimulated cultures after an additional 2 days.

Assay [2] relates to isotype-specific anti-ovalbumin antibody. The experiment in a line: Isotype-specific anti-ovalbumin antibody after a single dose of MEB, primary and secondary response. It counts as in vivo, C57BL/10 mice. The protocol: C57BL/10 mice are injected ip with ovalbumin/CFA on day 0, followed by a single ip injection of saline or MEB (0.15 mmol) on Days 2 or 3. The mice are reimmunized with ovalbumin sc on Day 10. Isotype-specific anti-ovalbumin antibody generated during the primary immune response (FIG. 4A), and the secondary immune response (FIG. 4B) are measured in the serum at day 10 and day 16, respectively. (FIG. 4C). […] This experiment was repeated, and the proliferation data represents the means of the two experiments.
The butyrate derivatives are tested for their ability to suppress lymphocyte activity in vivo. C57BL/10 mice (5 mice/group) are injected ip with 100 μg of ovalbumin in conjunction with complete Freund's adjuvant on Day 0. In one experiment, the mice also receive one ip injection per day of the butyrate derivatives (0.091 mmol) on Days 1–3. Serum samples are obtained 10 days after the initial injection with ovalbumin, and tested for the presence of anti-ovalbumin antibodies using an ELISA. To perform the ELISA 96 well plates (Costar 3595) are first incubated with ovalbumin (100 μl/well of 100 μg/ml in PBS) overnight at 4° C. The plates are then washed 4 times with PBS and 0.5% Tween 20, blocked with 1% fetal calf serum for 30 minutes at 37° C., and washed again. Individual serum samples are added (diluted 1/100 or 1/1000 in PBS), and the plates are incubated for 2 hours at 20° C. The plates were next washed 7 times with PBS/Tween, and alkaline phosphate (AP)-labeled goat anti-mouse IgG, IgA, IgM (H+L) (Zymed) is added ( 1/1000) for 1 hour at 20° C. The plates are again washed 7 times with PBS/Tween, alkaline phosphate substrate (1 mg/ml) is added. After 10 minutes, Ig levels are quantified by an ELISA reader (absorbance 405 nm). The concentration of anti-ovalbumin is determined by comparison with a standard curve obtained using mouse anti-ovalbumin antibody (Sigma; St. Louis, Mo.). To measure isotype-specific anti-ovalbumin antibodies, serum samples (diluted at 1/300 or 1/1000) are incubated on the ovalbumin-coated plates as described above. After washing, biotinylated detecting antibodies directed against mouse IgG2a (rat IgG1, clone R19–15), IgG2b (rat IgG2a, clone R12–3) IgG1 (rat IgG1, clone A85–1), or IgM (rat IgG2a, clone R6–60.2) (all purchased from PharMingen, La Jolla, Calif.) are added at 2.5 μg/ml for one hour at 20° C. followed by AP-labeled ExtrAvidin (Sigma) for one hour at 20° C. and AP substrate. Ig levels are presented as OD measurements. […]

The test system of assay [3] is spleen cells from DBA/2 mice. The experiment in a line: Mixed lymphocyte response (MLR), alloantigen-specific T cell unresponsiveness. The class given is cell-based. The protocol:
(FIG. 6A) Spleen cells from DBA/2 mice (H-2^d) were stimulated in a primary mixed lymphocyte response (MLR) with irradiated spleen cells or from C57BL/10 mice (H-2^b) in the presence (∘) or absence (●) of MEB (1 mM). As a negative control some wells are stimulated with spleen cells from DBA/2 mice (▾). Proliferation is measured on day 5. (FIG. 6B) After 3 days, some wells in the primary MLR cultures are washed, and rested for a further 2 days. The spleen cells that were stimulated in the primary MLR with spleen cells from C57BL/10 mice in the presence (∘) or absence (●) of MEB are then isolated and reincubated with either the original alloantigen (spleen cells from C57BL/10 mice), with a third-party alloantigen [spleen cells from C3H/HeJ mice (H-2k)], or with IL-2 (Con A CM).
The ability of MEB to induce alloantigen-specific T cell unresponsiveness is shown by incubating spleen cells from DBA/2 mice (H-2^d) (2.5×10^5 in 200 μl /wells) with stimulator cells [2.5×10^5 irradiated (2000R) spleen cells from C57BL/10 mice (H-2^b)]. MEB (1 mM) is added to some wells of the mixed lymphocyte reaction (MLR) 24 hours after the initiation of culture. After an additional 3 days, the MLR cultures are washed, and rested for a further 2 days. The T cells from the MLR are then isolated and reincubated at 2.5×10^5/well with either the initial alloantigen (spleen cells from C57BL/10 mice), or with a third-party alloantigen [spleen cells from C3H/HeJ mice (H-2^k)]. Proliferation in both the primary and secondary MLR is measured on day 5 by assessing incorporation of [^3H]-TdR after a 12 hour pulse.

Where [4] appears, read: single ip dose 0.15 mmol on Day 2 or 3, serum day 10.
The mark [5] stands for this setting: single ip dose 0.15 mmol on day 2, serum day 10.
Where [6] appears, read: single ip dose 0.15 mmol on day 2 or day 3, reimmunized Day 10, serum day 16.
Where [7] appears, read: single ip dose 0.15 mmol, reimmunized Day 10, serum day 16.

On to `CCCC(=O)OCCN1CCOCC1.Cl` [MEB, 2-(4-Morpholinyl)ethyl butyrate hydrochloride], for which the “Suppression of IL-2-induced proliferation of Th1 cells” value in assay [1] (10% Con A CM, various concentrations, proliferation after 2 days) is listed as “comparable to n-butyrate”. In addition, the “Proliferation to IL-2 after compounds are washed out” value in assay [1] (washed after 24 hours, fresh IL-2 medium, additional 2 days) is “regained their ability to proliferate to IL-2”. In assay [2] (setting [4]), the “IgG2a anti-ovalbumin antibody, primary response” value is given as “significantly decreased” and the “IgG2b anti-ovalbumin antibody, primary response” value is reported as “significantly decreased”. Further, in assay [2] (setting [5]), the “IgG, anti-ovalbumin antibody, primary response” value is given as “decreased, albeit not dramatically” and the “IgM anti-ovalbumin antibody, primary response” value is “decreased, albeit not dramatically”. Besides, in assay [2] (setting [6]), the “Decrease of IgG2a anti-ovalbumin antibody, secondary response, compared to controls” value stood at 80% and the “Decrease of IgG2b anti-ovalbumin antibody, secondary response, compared to controls” value is on record as 80%. In assay [2] (setting [7]), the “IgG1 anti-ovalbumin production, secondary response” value is recorded as “significantly decreased” and the “IgM anti-ovalbumin production, secondary response” value is given as “unaffected”. Further, the “Proliferation in secondary MLR, third-party alloantigen” value in assay [3] (MEB 1 mM in primary MLR, restimulated with C3H/HeJ spleen cells) is reported as “able to proliferate”. Also, the “Proliferation in secondary MLR, initial alloantigen” value in assay [3] (MEB 1 mM in primary MLR, restimulated with C57BL/10 spleen cells without MEB) is listed as “lose their ability to proliferate”. Further, the “Proliferation in secondary culture, exogenous IL-2” value in assay [3] (MEB 1 mM in primary MLR, restimulated with IL-2) is recorded as “able to proliferate”. For the same compound, the “Spleen cell proliferation in primary one-way MLR” value in assay [3] (MEB 1 mM, day 5) is listed as “blocked spleen cell proliferation”.
